Laboratory results: article PMC12627810 (Nature Communications, 2025)
Where “and” joins values, the source holds several entries; their conditions need not be identical. Equal entries are not always repeated. Where two headings read alike, the source gives them in different places.

Experiments:
[1] = tested on: SERT allosteric site; details: S1-bound [3H]imipramine; cited from earlier work
[2] = tested on: SERT F556Anap (purified); assay: Real-time Anap fluorescence measurements, SERT F556Anap; format: binding, human; details: 200 nM vilazodone after 30 min preincubation with 100 nM imipramine, Na+
[3] = tested on: SERT-expressing membranes; details: cited from earlier work
[4] = tested on: SERT V86Anap (purified); assay: Anap fluorescence emission spectra, SERT V86Anap; design: species or system human; details: 200 nM ligand
[5] = target: T1, SERT WT (Homo sapiens, UniProt P31645); assay: [3H]5-HT uptake inhibition, intact COS-7 cells expressing SERT WT; format: cell-based
T1 sequence (P31645 whole entry): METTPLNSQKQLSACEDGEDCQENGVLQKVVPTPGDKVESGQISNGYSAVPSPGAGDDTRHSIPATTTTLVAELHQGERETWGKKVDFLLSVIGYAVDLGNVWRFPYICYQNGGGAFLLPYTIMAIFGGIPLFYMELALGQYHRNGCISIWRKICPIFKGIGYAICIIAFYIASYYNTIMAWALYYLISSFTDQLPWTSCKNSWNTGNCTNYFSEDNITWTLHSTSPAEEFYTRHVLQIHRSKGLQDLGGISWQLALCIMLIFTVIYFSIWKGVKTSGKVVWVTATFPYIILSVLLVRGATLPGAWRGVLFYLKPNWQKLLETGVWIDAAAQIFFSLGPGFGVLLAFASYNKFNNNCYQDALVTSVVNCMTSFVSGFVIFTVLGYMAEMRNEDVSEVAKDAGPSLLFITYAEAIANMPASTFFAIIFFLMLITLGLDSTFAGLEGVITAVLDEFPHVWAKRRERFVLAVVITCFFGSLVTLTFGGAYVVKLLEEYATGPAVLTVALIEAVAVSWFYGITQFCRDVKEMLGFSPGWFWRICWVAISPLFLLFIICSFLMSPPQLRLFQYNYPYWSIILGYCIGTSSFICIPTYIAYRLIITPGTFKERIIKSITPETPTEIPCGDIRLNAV

[6] = tested on: SERT F556Anap (purified); assay: Anap fluorescence emission spectra, SERT F556Anap; design: species or system human; details: 200 nM ligand
[7] = target: T1, SERT WT; details: previous study; cited from earlier work

For N#Cc1ccc2[nH]cc(CCCCN3CCN(c4ccc5oc(C(N)=O)cc5c4)CC3)c2c1 [vilazodone], the “allosteric potency (inhibition of dissociation of pre-bound [3H]imipramine)” value [1] is listed as 14 nM and ~ 14 nM, the “τ of time-dependent change in fluorescence, imipramine-bound SERT” value [2] is listed as 0.8 ± 0.18 min and the “affinity, SERT-expressing membranes” value ([3]; K+) is listed as 36.7 nM. The “affinity, SERT-expressing membranes” value ([3]; Na+) was 5.8 nM, the “change of V86Anap fluorescence emission” value ([4]; 200 mM K+) was “increasing the fluorescence” and the “change of V86Anap fluorescence emission” value ([4]; 200 mM Na+) was “decreased the fluorescence”. For the same compound, the “Hill coefficient (vilazodone)” value ([5]; SERT WT) was > 1, the “5-HT uptake inhibition by vilazodone in presence of Fab 15B8” value ([5]; preincubation with 100 nM Fab 15B8 vs buffer, whole cells) was “unchanged” and the “change of F556Anap fluorescence emission” value ([6]; 200 mM K+) was “red-shifted and increase in fluorescence”. For the same compound, the “change of F556Anap fluorescence emission” value ([6]; 200 mM NMDG+) was “decrease in quantum yield and a blue-shift”, the “change of F556Anap fluorescence emission” value ([6]; 200 mM Na+) was “large decrease in intensity accompanied by a blue-shift” and the “Hill coefficient of inhibition of [3H]5-HT uptake” value [7] was 1.8 and ~ 1.8.
